ChEMBL document CHEMBL4043168, “The design and SAR of a novel series of 2-aminopyridine based LRRK2 inhibitors” (Bioorg Med Chem Lett, 2017)
pIC50: −log10 of the molar value. Values after ≈ are worked out from the molar mass of the structure shown.

Tests used:
[1] = Intrinsic clearance in human liver microsomes; type: ADME, microsome; conditions: read-out: CLH (converted)
[2] = Efflux ratio of apparent permeability from basolateral to apical over apical to basolateral side in MDCK cells; type: ADME, cell-based, Canis lupus familiaris; conditions: dog
[3] = Apparent permeability in MDCK cells; type: ADME, cell-based, Canis lupus familiaris; conditions: dog
[4] = Aqueous solubility of the compound in pH 7.4; type: physicochemical; conditions: aqueous medium
[5] = Intrinsic clearance in rat liver microsomes; type: ADME, microsome; conditions: read-out: CLH (converted)
[6] = molecular target: Leucine-rich repeat serine/threonine-protein kinase 2 (Homo sapiens, UniProt Q5S007, G2019S)
Sequence of Leucine-rich repeat serine/threonine-protein kinase 2 (Homo sapiens, UniProt Q5S007, G2019S) (Q5S007 whole entry G2019S): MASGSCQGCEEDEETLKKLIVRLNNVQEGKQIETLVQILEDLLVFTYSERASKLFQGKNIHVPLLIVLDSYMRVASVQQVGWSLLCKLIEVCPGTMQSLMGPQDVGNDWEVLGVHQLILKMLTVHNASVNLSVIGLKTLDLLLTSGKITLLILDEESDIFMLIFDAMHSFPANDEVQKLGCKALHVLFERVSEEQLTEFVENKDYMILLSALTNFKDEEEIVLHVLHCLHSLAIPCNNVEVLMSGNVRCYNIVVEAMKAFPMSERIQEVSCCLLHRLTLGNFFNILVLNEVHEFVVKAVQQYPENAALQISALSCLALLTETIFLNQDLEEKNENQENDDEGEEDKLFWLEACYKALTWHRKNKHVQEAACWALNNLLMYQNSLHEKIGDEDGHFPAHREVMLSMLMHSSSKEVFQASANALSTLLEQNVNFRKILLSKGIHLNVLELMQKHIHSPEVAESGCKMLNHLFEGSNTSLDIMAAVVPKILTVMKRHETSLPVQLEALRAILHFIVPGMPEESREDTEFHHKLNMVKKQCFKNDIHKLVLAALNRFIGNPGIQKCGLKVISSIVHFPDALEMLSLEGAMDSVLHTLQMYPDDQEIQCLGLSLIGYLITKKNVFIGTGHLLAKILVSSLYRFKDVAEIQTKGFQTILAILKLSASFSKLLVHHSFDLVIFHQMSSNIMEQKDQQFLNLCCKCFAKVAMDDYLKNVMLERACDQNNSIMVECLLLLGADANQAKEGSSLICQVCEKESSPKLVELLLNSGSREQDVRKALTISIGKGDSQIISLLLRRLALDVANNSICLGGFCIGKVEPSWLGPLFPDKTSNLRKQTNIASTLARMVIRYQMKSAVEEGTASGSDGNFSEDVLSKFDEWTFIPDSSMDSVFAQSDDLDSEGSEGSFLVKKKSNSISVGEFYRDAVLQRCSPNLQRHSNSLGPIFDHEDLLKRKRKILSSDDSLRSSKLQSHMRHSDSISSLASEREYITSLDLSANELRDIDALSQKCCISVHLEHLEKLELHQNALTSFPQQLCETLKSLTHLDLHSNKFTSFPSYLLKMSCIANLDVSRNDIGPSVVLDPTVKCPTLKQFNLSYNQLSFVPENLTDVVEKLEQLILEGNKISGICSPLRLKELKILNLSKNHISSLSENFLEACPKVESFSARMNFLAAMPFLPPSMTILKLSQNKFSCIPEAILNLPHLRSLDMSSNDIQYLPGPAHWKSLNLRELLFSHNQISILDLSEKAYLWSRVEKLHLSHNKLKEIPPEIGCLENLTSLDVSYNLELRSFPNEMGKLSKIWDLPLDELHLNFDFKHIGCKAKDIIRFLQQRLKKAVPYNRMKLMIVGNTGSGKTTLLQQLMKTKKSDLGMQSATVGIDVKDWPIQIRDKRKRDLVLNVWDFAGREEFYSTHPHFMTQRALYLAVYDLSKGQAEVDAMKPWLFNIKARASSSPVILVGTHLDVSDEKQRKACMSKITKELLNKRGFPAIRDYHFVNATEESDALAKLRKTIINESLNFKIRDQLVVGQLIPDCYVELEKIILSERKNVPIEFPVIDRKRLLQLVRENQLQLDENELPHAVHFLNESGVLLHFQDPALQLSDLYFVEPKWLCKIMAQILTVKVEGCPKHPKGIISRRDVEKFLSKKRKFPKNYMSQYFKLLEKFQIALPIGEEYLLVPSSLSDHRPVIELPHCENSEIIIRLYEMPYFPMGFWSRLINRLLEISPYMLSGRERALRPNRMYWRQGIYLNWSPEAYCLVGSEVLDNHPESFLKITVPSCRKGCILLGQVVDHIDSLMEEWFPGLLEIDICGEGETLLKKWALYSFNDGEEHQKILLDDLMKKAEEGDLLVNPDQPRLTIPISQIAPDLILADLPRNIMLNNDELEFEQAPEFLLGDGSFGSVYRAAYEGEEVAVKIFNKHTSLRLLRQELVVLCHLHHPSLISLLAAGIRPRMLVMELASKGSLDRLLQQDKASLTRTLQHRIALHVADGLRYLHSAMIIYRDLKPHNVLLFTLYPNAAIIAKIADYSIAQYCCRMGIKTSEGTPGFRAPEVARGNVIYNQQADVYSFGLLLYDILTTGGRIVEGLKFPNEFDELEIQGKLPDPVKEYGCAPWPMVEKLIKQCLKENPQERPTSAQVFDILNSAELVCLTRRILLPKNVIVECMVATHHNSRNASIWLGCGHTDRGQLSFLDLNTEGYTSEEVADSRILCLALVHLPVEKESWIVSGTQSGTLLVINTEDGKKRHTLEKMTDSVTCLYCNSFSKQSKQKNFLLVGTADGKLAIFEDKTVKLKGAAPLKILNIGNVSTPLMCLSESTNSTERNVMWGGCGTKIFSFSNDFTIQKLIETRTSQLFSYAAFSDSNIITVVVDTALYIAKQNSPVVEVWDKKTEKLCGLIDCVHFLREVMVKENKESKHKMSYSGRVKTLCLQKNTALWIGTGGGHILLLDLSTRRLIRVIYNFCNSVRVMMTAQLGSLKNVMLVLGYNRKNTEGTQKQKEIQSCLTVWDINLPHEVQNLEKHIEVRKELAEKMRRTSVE
Description: Inhibition of recombinant human LRRK2 (970 to 2527 residues) G2019S mutant expressed in baculovirus preincubated for 30 mins followed by fluorescein-LRRKtide substrate addition after 2 hrs by TR-FRET assay

[7] = molecular target: T1, Leucine-rich repeat serine/threonine-protein kinase 2 (Homo sapiens, UniProt Q5S007)
T1 sequence (Q5S007 whole entry, the tested form may be a part): as the sequence (Q5S007 whole entry G2019S) above, with S2019G counted along it
Description: Inhibition of recombinant human wild type GST-tagged LRRK2 (970 to 2527 residues) preincubated for 30 mins followed by fluorescein-LRRKtide substrate addition after 2 hrs by TR-FRET assay

[8] = molecular target: T1, Leucine-rich repeat serine/threonine-protein kinase 2; experiment: Inhibition of recombinant human wild type GST-tagged LRRK2 (970 to 2527 residues) at 200 uM preincubated for 30 mins followed by fluorescein-LRRKtide substrate addition after 2 hrs by TR-FRET assay relative to control
[9] = test system: Leucine-rich repeat serine/threonine-protein kinase 2 (Homo sapiens), Q5S007 [G2019S]; conditions: at 40 µM
Sequence of Leucine-rich repeat serine/threonine-protein kinase 2 (Homo sapiens), Q5S007 [G2019S] (Q5S007 whole entry G2019S, the tested form may be a part): as the sequence (Q5S007 whole entry G2019S) above
Description: Inhibition of recombinant human LRRK2 (970 to 2527 residues) G2019S mutant expressed in baculovirus at 40 uM preincubated for 30 mins followed by fluorescein-LRRKtide substrate addition after 2 hrs by TR-FRET assay

[10] = molecular target: T1, Leucine-rich repeat serine/threonine-protein kinase 2; experiment: Inhibition of recombinant human wild type GST-tagged LRRK2 (970 to 2527 residues) at 30 uM preincubated for 30 mins followed by fluorescein-LRRKtide substrate addition after 2 hrs by TR-FRET assay relative to control
[11] = molecular target: T1, Leucine-rich repeat serine/threonine-protein kinase 2; experiment: Inhibition of recombinant human wild type GST-tagged LRRK2 (970 to 2527 residues) at 66.7 uM preincubated for 30 mins followed by fluorescein-LRRKtide substrate addition after 2 hrs by TR-FRET assay relative to control
[12] = molecular target: T1, Leucine-rich repeat serine/threonine-protein kinase 2; experiment: Inhibition of recombinant human wild type GST-tagged LRRK2 (970 to 2527 residues) at 22 uM preincubated for 30 mins followed by fluorescein-LRRKtide substrate addition after 2 hrs by TR-FRET assay relative to control
[13] = test system: Leucine-rich repeat serine/threonine-protein kinase 2 (Homo sapiens), Q5S007 [G2019S]; conditions: at 200 µM
Description: Inhibition of recombinant human LRRK2 (970 to 2527 residues) G2019S mutant expressed in baculovirus at 200 uM preincubated for 30 mins followed by fluorescein-LRRKtide substrate addition after 2 hrs by TR-FRET assay

| SMILES | pIC50 [6] | pIC50 [7] | further results |
| --- | --- | --- | --- |
| Cc1ccc(-c2cnc(N)c(-c3cnn(C)c3)c2)cc1 | 5.17 | 4.80 | CLint scaled [1]: 100 mL/min/kg; efflux ratio [2]: 0.55; Papp [3]: 16.9 ×10⁻⁶ cm/s; solubility [4]: 11 µg/mL (≈ 41.6 µM); CLint scaled [5]: 283 mL/min/kg |
| Cc1nnc(-c2cc(-c3ccc4[nH]ccc4c3)cnc2N)o1 | 5.44 |  |  |
| Cc1ccc(-c2cnc(N)c(-c3cn(C)cn3)c2)cc1 | 4.24 |  | inhibition [8]: 60% |
| Cn1ccc(-c2cc(-c3ccc4[nH]ccc4c3)cnc2N)n1 |  |  | inhibition [9]: 65%; inhibition [8]: 48% |
| Cn1cc(-c2cc(-c3ccc4[nH]ccc4c3)cnc2N)cn1 | 4.89 |  | inhibition [8]: 75% |
| Cn1cc(-c2cc(-c3ccc4c(ccn4C)c3)cnc2N)cn1 | 5.24 |  | inhibition [10]: 64% |
| Cc1ccc(-c2cnc(N)c(-c3cnc(C)o3)c2)cc1 | 4.96 | 4.62 |  |
| Cc1ccc(-c2cnc(N)c(-c3nnc(C4CC4)o3)c2)cc1 | 5.66 | 5.64 |  |
| Nc1ncc(-c2ccc3[nH]ccc3c2)cc1-c1nnc(C2CC2)o1 | 5.80 | 5.89 |  |
| CCNc1nc(Nc2cc(F)c(C(=O)N3CCOCC3)cc2OC)ncc1C(F)(F)F | 7.34 | 7.01 |  |
| CCn1cc(-c2cc(-c3ccc(C)cc3)cnc2N)cn1 | 4.92 | 4.92 |  |
| Cc1ccc(-c2cnc(N)c(-c3cn[nH]c3)c2)cc1 | 4.89 |  | inhibition [11]: 72% |
| CCc1nnc(-c2cc(-c3ccc4[nH]ccc4c3)cnc2N)o1 | 5.54 |  | inhibition [12]: 77% |
| Cc1ccc(-c2cnc(N)c(-n3cc(C)nn3)c2)cc1 | 5.04 |  | inhibition [10]: 70% |
| Cc1ccc(-c2cnc(N)c(-c3cnn(C)c3C)c2)cc1 |  |  | inhibition [13]: 62%; inhibition [8]: 49% |
